Reference: US8618100B2, “Compounds with antibacterial activity against Clostridium” (Elanco Animal Health Ireland Limited, priority 2010, dated 2013)
Converted amounts (≈) assume the structure as drawn.

Legend:
[1] = tested on: Clostridium perfringens (strain 56); assay: microbe, parasite or virus in culture; format: cell-based; conditions: 24 h, read-out: IC90 against C. perfringens
[2] = tested on: Clostridium difficile (ATCC9689); assay: In-vitro anti-bacterial activity against C. difficile (D.1.2); format: cell-based; conditions: Clostridioides difficile, Reinforced Clostridial broth, 37° C., 48 hours, anaerobic, OD 570 nm
Moraxella catarrhalis = assay: In-vitro test against several bacteria (D.1.3): M. catarrhalis; format: cell-based; conditions: Gram negative, Brain heart Infusion medium, 20-24 hours aerobic, read-out: IC90 against M. cattarhalis
Experimental: (§1) The plates were incubated at 37° C.

Acinetobacter baumanii = assay: In-vitro test against several bacteria (D.1.3): A. baumanii; format: cell-based; conditions: Acinetobacter baumannii; Gram negative; Nutrient broth; 20-24 hours aerobic
Experimental: as §1

Enterococcus faecalis = assay: In-vitro test against several bacteria (D.1.3): E. faecalis; format: cell-based; conditions: Gram positive, Todd Hewitt medium, 20-24 hours in 5% CO2; for IC90: Enterococcus faecalis
Experimental: (§2) The plates were incubated at 37° C. […] Enterococcus faecalis, Streptococcus pneumonia: Todd Hewitt medium; incubation for 20-24 hours in 5% CO2.

Streptococcus pneumonia = assay: In-vitro test against several bacteria (D.1.3): S. pneumonia; format: cell-based; conditions: Gram positive, Todd Hewitt medium, 20-24 hours in 5% CO2; for IC90: Streptococcus pneumoniae
Experimental: as §2

Mycobacterium smegmatis = assay: In-vitro test against several bacteria (D.1.3): M. smegmatis; format: cell-based; conditions: Mycolicibacterium smegmatis; Mueller Hinton medium; 48 hours aerobic
Experimental: The plates were incubated at 37° C. […] Mycobacterium smegmatis: Mueller Hinton medium; incubation for 48 hours in aerobic conditions.

Escherichia coli = assay: In-vitro test against several bacteria (D.1.3): E. coli; conditions: read-out: IC90 against E. coli
Staphylococcus aureus = assay: In-vitro test against several bacteria (D.1.3): S. aureus; conditions: for IC90: Staphylococcus aureus, read-out: IC90 against S. aureus
Bacillus subtilis = assay: In-vitro test against several bacteria (D.1.3): B. subtilis; conditions: read-out: IC90 against B. subtilis
Klebsiella pneumoniae = assay: In-vitro test against several bacteria (D.1.3): K. pneumoniae; conditions: read-out: IC90 against K. pneumoniae
Pseudomonas aeruginosa = assay: In-vitro test against several bacteria (D.1.3): P. aeruginosa; conditions: read-out: IC90 against P. aeruginosa
[3] = tested on: Staphylococcus epidermidis; assay: In-vitro test against several bacteria (D.1.3): S. epidermidis; conditions: for IC90: Staphylococcus epidermidis, read-out: IC90 against S. epidermidis
Listeria monocytogenes = assay: In-vitro test against several bacteria (D.1.3): L. monocytogenes; conditions: read-out: IC90 against L. monocytogenes
[4] = tested on: Methicillin-Resistant Staphylococcus aureus; assay: In-vitro test against several bacteria (D.1.3): Methicillin-Resistant S. aureus; conditions: for IC90: Staphylococcus aureus, read-out: IC90 against Methicillin-Resistant S. aureus
[5] = Gram positive, Mueller Hinton medium, 20-24 hours aerobic

SMILES | IC90 [1] [µg/mL] | IC90 [2] [µg/mL] | IC90 (Moraxella catarrhalis) [µg/mL] | IC90 (Acinetobacter baumanii) [µg/mL] | IC90 (Enterococcus faecalis) [µg/mL] | IC90 (Streptococcus pneumonia) [µg/mL] | IC90 (Mycobacterium smegmatis) [µg/mL] | IC90 (Escherichia coli) [µg/mL] | IC90 (Staphylococcus aureus) [µg/mL] | IC90 (Bacillus subtilis) [µg/mL] | IC90 (Klebsiella pneumoniae) [µg/mL] | IC90 (Pseudomonas aeruginosa) [µg/mL] | IC90 [3] [µg/mL] | IC90 (Listeria monocytogenes) [µg/mL] | IC90 [4] [µg/mL] | melting point [°C] | other results
O=c1cc(NCCCN[C@@H]2CCOc3c(Br)cc(Br)cc32)[nH]c2ccsc12 [REP3123, 5-[3-((R)(+)-6,8-dibromo-chroman-4-ylamino)-propylamino]-4H-thieno[3,2-b]pyridine-7-one] | 0.25 (≈ 0.487 µM) | 0.5 to 1 (≈ 0.974 to 1.95 µM) | 16 (≈ 31.2 µM) | > 64 | < 0.25 | 1 (≈ 1.95 µM) | 6 to 8 (≈ 11.7 to 15.6 µM) | > 32 | < 0.25 | 0.12 (≈ 0.234 µM) | > 64 | > 78 | < 0.25 | 0.12 (≈ 0.234 µM) | < 0.25 | – | IC90 against E. faecalis (Enterococcus faecalis): <0.25 µg/mL; IC90 against S. aureus (Staphylococcus aureus; [5]): <0.25 µg/mL; IC90 against S. epidermidis [3, 5]: <0.25 µg/mL; IC90 against Methicillin-Resistant S. aureus [4, 5]: <0.25 µg/mL
CNc1nc(NCCCN[C@@H]2CCOc3c(Br)cc(Br)cc32)nc2c(Cl)cnn12 [(3)] | – | – | – | – | – | – | – | – | – | – | – | – | – | – | – | 108.8 to 118.6 | –
Cl.Oc1nc(NCCCN[C@@H]2CCOc3c(Br)cc(Br)cc32)nc2ccnn12 [Compound (2)] | 0.5 | 2 | 16 | > 64 | 1.5 | > 31 | > 31 | > 31 | 8 to 15 | 4 | > 64 | > 75 | 15 | 2 | 7 to 13 | 234.6 to 235.6 | IC90 against S. pneumonia (Streptococcus pneumonia): >31 µg/mL
Nc1nc(NCCCN[C@@H]2CCOc3c(Br)cc(Br)cc32)nc2c(Cl)cnn12 [(4)] | – | – | – | – | – | – | – | – | – | – | – | – | – | – | – | 78.7 to 94.1 | –
